According to PubChem BioAssay AID248 (DTP/NCI, 2004):
Toxic doses and inconclusive results are not listed.

Tested on: L1210 leukemia ip in BDF1 mice, survival T/C
Test: NCI In Vivo Anticancer Drug Screen. Data for tumor model L1210 Leukemia (intraperitoneal) in B6D2F1 (BDF1) mice
Settings: endpoint: mean survival time, higher = longer survival
Outline: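 In this screen, tumor-bearing mice given compound are compared to those given vehicle, and their survival values are reported as a treated-to-control quotient.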

[1] = dose: 100.0 mg/kg/injection, schedule: Q01DX009 (ip), vehicle: Klucel (hydroxypropylcellulose) (HPC)
[2] = dose: 100.0 mg/kg/injection, schedule: Q04DX003 (ip), vehicle: saline
[3] = dose: 200.0 mg/kg/injection, schedule: Q01DX009 (ip), vehicle: Klucel (hydroxypropylcellulose) (HPC)
[4] = dose: 200.0 mg/kg/injection, schedule: Q04DX003 (ip), vehicle: saline
[5] = dose: 400.0 mg/kg/injection, schedule: Q01DX009 (ip), vehicle: Klucel (hydroxypropylcellulose) (HPC)
[6] = dose: 400.0 mg/kg/injection, schedule: Q04DX003 (ip), vehicle: saline
[7] = dose: 100.0 mg/kg/injection, schedule: Q01DX009 (ip), vehicle: saline
[8] = dose: 200.0 mg/kg/injection, schedule: Q01DX009 (ip), vehicle: saline
[9] = dose: 400.0 mg/kg/injection, schedule: Q01DX009 (ip), vehicle: saline
[10] = dose: 100.0 mg/kg/injection, schedule: Q04DX003 (ip), vehicle: Klucel (hydroxypropylcellulose) (HPC)
[11] = dose: 200.0 mg/kg/injection, schedule: Q04DX003 (ip), vehicle: Klucel (hydroxypropylcellulose) (HPC)
[12] = dose: 400.0 mg/kg/injection, schedule: Q04DX003 (ip), vehicle: Klucel (hydroxypropylcellulose) (HPC)
[13] = dose: 100.0 mg/kg/injection, schedule: Q04DX003 (ip), vehicle: saline with Tween-80
[14] = dose: 200.0 mg/kg/injection, schedule: Q04DX003 (ip), vehicle: saline with Tween-80
[15] = dose: 400.0 mg/kg/injection, schedule: Q04DX003 (ip), vehicle: saline with Tween-80

O=C(CNC(=O)OCc1ccccc1)NCCCCCCNCCCCCCNC(=O)CNC(=O)OCc1ccccc1
T/C (dose: 1.25 mg/kg/injection, schedule: Q01DX Z (ip), vehicle: saline): 93 % of control
T/C (dose: 2.5 mg/kg/injection, schedule: Q01DX Z (ip), vehicle: saline): 93 % of control
T/C (dose: 5.0 mg/kg/injection, schedule: Q01DX Z (ip), vehicle: saline): 94 % of control
T/C (dose: 10.0 mg/kg/injection, schedule: Q01DX Z (ip), vehicle: saline): 93 % of control

CNS(=O)(=O)c1ccc(C)cc1
T/C [1]: 104 % of control
T/C [2]: 102 % of control
T/C [3]: 108 % of control
T/C [4]: 100 % of control
T/C [5]: 108 % of control
T/C [6]: 122 % of control

CC(C)N(C(C)C)C(C)CCNc1c2ccccc2nc2cc(Cl)ccc12 (configuration not stated)
T/C (dose: 1.88 mg/kg/injection, schedule: Q01DX Z (ip), vehicle: methylcellulose (MC)): 113 % of control
T/C (dose: 3.0 mg/kg/injection, schedule: Q01DX Z (ip), vehicle: methylcellulose (MC)): 117 % of control
T/C (dose: 3.75 mg/kg/injection, schedule: Q01DX Z (ip), vehicle: methylcellulose (MC)): 115 % of control
T/C (dose: 5.0 mg/kg/injection, schedule: Q01DX Z (ip), vehicle: methylcellulose (MC)): 116 % of control
T/C (dose: 6.0 mg/kg/injection, schedule: Q04DX003 (ip), vehicle: saline): 98 % of control
T/C (dose: 7.5 mg/kg/injection, schedule: Q01DX Z (ip), vehicle: methylcellulose (MC)): 110 % of control
T/C (dose: 12.0 mg/kg/injection, schedule: Q04DX003 (ip), vehicle: saline): 102 % of control
T/C (dose: 15.0 mg/kg/injection, schedule: Q01DX Z (ip), vehicle: methylcellulose (MC)): 109 % of control
T/C (dose: 24.0 mg/kg/injection, schedule: Q04DX003 (ip), vehicle: saline): 105 % of control

O=S(=O)(O)CCN(CCO)CCO
T/C [7]: 98 % of control
T/C [2]: 97 % of control
T/C [8]: 101 % of control
T/C [4]: 101 % of control
T/C [9]: 109 % of control
T/C [6]: 94 % of control

NC(=S)NNc1ccccn1
T/C (dose: 3.13 mg/kg/injection, schedule: Q01DX009 (ip), vehicle: saline): 108 % of control
T/C (dose: 6.25 mg/kg/injection, schedule: Q01DX009 (ip), vehicle: saline): 96 % of control
T/C (dose: 12.5 mg/kg/injection, schedule: Q01DX009 (ip), vehicle: saline): 101 % of control
T/C (dose: 100.0 mg/kg/injection, schedule: Q04DX002 (ip), vehicle: saline): 94 % of control

O=C1CCc2nc(=O)c3c4ccccc4ccc3n21
T/C (dose: 100.0 mg/kg/injection, schedule: Q01DX001 (ip), vehicle: Klucel (hydroxypropylcellulose) (HPC)): 94 % of control
T/C (dose: 200.0 mg/kg/injection, schedule: Q01DX001 (ip), vehicle: Klucel (hydroxypropylcellulose) (HPC)): 100 % of control
T/C (dose: 400.0 mg/kg/injection, schedule: Q01DX001 (ip), vehicle: Klucel (hydroxypropylcellulose) (HPC)): 99 % of control

S=C(N/N=C/c1ccccc1Cl)Nc1ccccc1
T/C [1]: 95 % of control
T/C [3]: 100 % of control
T/C [5]: 101 % of control

CC(C)COC(=O)c1ccccc1O
T/C [1]: 98 % of control
T/C [10]: 96 % of control
T/C [3]: 99 % of control
T/C [11]: 96 % of control
T/C [5]: 87 % of control
T/C [12]: 89 % of control

NC(=O)c1ccc[n+](CCc2c[nH]c3ccccc23)c1
T/C (dose: 75.0 mg/kg/injection, schedule: Q01DX001 (ip), vehicle: saline with Tween-80): 94 % of control
T/C (dose: 150.0 mg/kg/injection, schedule: Q01DX001 (ip), vehicle: saline with Tween-80): 101 % of control
T/C (dose: 300.0 mg/kg/injection, schedule: Q01DX001 (ip), vehicle: saline with Tween-80): 98 % of control

COc1ccc(/C=C(\C#N)c2ccc(C)cc2)cc1OC
T/C [13]: 102 % of control
T/C [14]: 100 % of control
T/C [15]: 100 % of control

O=c1[nH]nnc2nc(Cc3ccc([N+](=O)[O-])cc3)[nH]c12
T/C (dose: 100.0 mg/kg/injection, schedule: Q01DX001 (ip), vehicle: saline with Tween-80): 98 % of control

O=c1cc(-c2ccccc2)nc(Nc2nc3ccc([N+](=O)[O-])cc3[nH]2)[nH]1
T/C [1]: 95 % of control
T/C [10]: 100 % of control
T/C [3]: 95 % of control
T/C [11]: 103 % of control
T/C [5]: 87 % of control
T/C [12]: 106 % of control

COC(=O)CNC(=O)C(CSCc1ccccc1)NC(=O)OCc1ccccc1 (configuration not stated)
T/C [10]: 94 % of control
T/C [11]: 89 % of control
T/C [12]: 99 % of control

CN=C(N)c1ccc(NC(=O)/C=C\c2ccc(/C=C/C(=O)Nc3ccc(C(N)=NC)cc3)cc2)cc1
T/C (dose: 15.0 mg/kg/injection, schedule: Q01DX Z (ip), vehicle: saline): 121 % of control
T/C (dose: 60.0 mg/kg/injection, schedule: Q01DX Z (oral), vehicle: saline): 100 % of control
T/C (dose: 120.0 mg/kg/injection, schedule: Q01DX Z (ip), vehicle: saline): 179 % of control
T/C (dose: 120.0 mg/kg/injection, schedule: Q01DX Z (oral), vehicle: saline): 100 % of control
T/C (dose: 240.0 mg/kg/injection, schedule: Q01DX Z (oral), vehicle: saline): 101 % of control
T/C (dose: 480.0 mg/kg/injection, schedule: Q01DX Z (oral), vehicle: saline): 95 % of control

O=C1OC(Cc2ccccc2)(c2ccccc2)c2ccccc21 (configuration not stated)
T/C (dose: 50.0 mg/kg/injection, schedule: Q01DX009 (ip), vehicle: saline with Tween-80): 90 % of control
T/C (dose: 100.0 mg/kg/injection, schedule: Q01DX009 (ip), vehicle: saline with Tween-80): 88 % of control
T/C (dose: 200.0 mg/kg/injection, schedule: Q01DX009 (ip), vehicle: saline with Tween-80): 89 % of control

N#CCOc1cc(Cl)c(Cl)cc1Cl
T/C (dose: 100.0 mg/kg/injection, schedule: Q04DX002 (ip), vehicle: Klucel (hydroxypropylcellulose) (HPC)): 107 % of control
T/C (dose: 200.0 mg/kg/injection, schedule: Q04DX002 (ip), vehicle: Klucel (hydroxypropylcellulose) (HPC)): 97 % of control

CC(=O)C(C(=N)C#N)C(=O)Nc1ccccc1 (configuration not stated)
T/C [13]: 101 % of control
T/C [14]: 104 % of control
T/C [15]: 101 % of control

CC1=NN(c2ccc(S(=O)(=O)O)cc2)C(=O)/C1=C\c1c(C)[nH]n(-c2ccc(S(=O)(=O)O)cc2)c1=O
T/C [7]: 97 % of control
T/C [2]: 91 % of control
T/C [8]: 106 % of control
T/C [4]: 95 % of control
T/C [9]: 92 % of control
T/C [6]: 91 % of control

CCOC(=O)/C(O)=C\c1nnc(Cl)cc1Cl
T/C (dose: 75.0 mg/kg/injection, schedule: Q04DX002 (ip), vehicle: Klucel (hydroxypropylcellulose) (HPC)): 93 % of control
T/C (dose: 150.0 mg/kg/injection, schedule: Q04DX002 (ip), vehicle: Klucel (hydroxypropylcellulose) (HPC)): 96 % of control
T/C (dose: 300.0 mg/kg/injection, schedule: Q04DX002 (ip), vehicle: Klucel (hydroxypropylcellulose) (HPC)): 116 % of control

COc1ccc(OC)c(NC(=O)Nc2c(C)n(C)n(-c3ccccc3)c2=O)c1
T/C [1]: 93 % of control
T/C [10]: 98 % of control
T/C [3]: 93 % of control
T/C [11]: 93 % of control
T/C [5]: 101 % of control
T/C [12]: 90 % of control

CC1c2ccccc2N(S(=O)(=O)c2ccccc2)C1C (configuration not stated)
T/C (dose: 100.0 mg/kg/injection, schedule: Q01DX009 (ip), vehicle: gum acacia): 108 % of control
T/C (dose: 100.0 mg/kg/injection, schedule: Q04DX003 (ip), vehicle: gum acacia): 96 % of control
T/C (dose: 200.0 mg/kg/injection, schedule: Q01DX009 (ip), vehicle: gum acacia): 104 % of control
T/C (dose: 200.0 mg/kg/injection, schedule: Q04DX003 (ip), vehicle: gum acacia): 102 % of control
T/C (dose: 400.0 mg/kg/injection, schedule: Q01DX009 (ip), vehicle: gum acacia): 93 % of control
T/C (dose: 400.0 mg/kg/injection, schedule: Q04DX003 (ip), vehicle: gum acacia): 96 % of control

Oc1ccc(Br)cc1/C=N\NC(=S)Nc1ccc2cn[nH]c2c1
T/C (dose: 25.0 mg/kg/injection, schedule: Q01DX001 (ip), vehicle: carboxymethylcellulose (CMC)): 90 % of control
T/C (dose: 50.0 mg/kg/injection, schedule: Q01DX001 (ip), vehicle: carboxymethylcellulose (CMC)): 101 % of control
T/C (dose: 100.0 mg/kg/injection, schedule: Q01DX001 (ip), vehicle: carboxymethylcellulose (CMC)): 93 % of control
T/C (dose: 200.0 mg/kg/injection, schedule: Q01DX001 (ip), vehicle: carboxymethylcellulose (CMC)): 86 % of control
T/C (dose: 400.0 mg/kg/injection, schedule: Q01DX001 (ip), vehicle: carboxymethylcellulose (CMC)): 107 % of control
